Results reported in patent publication US20220323406A1, “METHODS AND COMPOSITIONS FOR DIFFERENTIATING STEM CELLS” (Massachusetts Institute of Technology, priority 2019, published 2022).

How the values were obtained:
[1] = test system: ENR+CD organoids (ISC to Paneth cell differentiation); assay: Primary screen: basal (non-stimulated) lysozyme secretion LYZ.NS, 2.5-D 384-well ENR+CD organoid differentiation; format: cell-based, mouse; conditions: primary screen; for Z.LYZ.NS: standard z score
Description: (§1) High-throughput screening.

[2] = test system: ENR+CD organoids (ISC to Paneth cell differentiation); assay: Primary screen: CCh-stimulated lysozyme secretion LYZ.S, 2.5-D 384-well ENR+CD organoid differentiation; format: cell-based, mouse; conditions: primary screen
Description: as §1

[3] = test system: ENR+CD organoids; assay: Primary screen: ATP (CellTiter-Glo 3D, CTG) cell number/viability, 2.5-D 384-well ENR+CD organoids; conditions: primary screen; for Z.CTG: standard z score;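 for all read-outs here: compounds given at plating and again on day 3 over a 6-day differentiation from ENR+CV stem-cell-enriched precursors, ATP measured on day 6, plate median as control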
[4] = dose 0.08 uM, FC vs plate median
[5] = dose 0.40 uM, FC vs plate median
[6] = dose 2.00 uM, FC vs plate median
[7] = dose 10.00 uM, FC vs plate median
[8] = dose 0.08 uM, FC relative to plate median
[9] = dose 0.40 uM, FC relative to plate median
[10] = dose 2.00 uM, FC relative to plate median
[11] = dose 10.00 uM, FC relative to plate median

O=C(NCCN1CCOCC1)c1ccc(Cl)cc1 [Moclobemide (Ro 111163)]
Z.LYZ.NS ([1]; dose 0.08 uM): 0.654 | Z.LYZ.NS ([1]; dose 0.40 uM): 1.055 | Z.LYZ.NS ([1]; dose 2.00 uM): 0.011 | Z.LYZ.NS ([1]; dose 10.00 uM): −0.243 | Dose.FC.LYZ.NS [1, 4]: 0.075 log2 fold change | Dose.FC.LYZ.NS [1, 5]: 0.121 log2 fold change | Dose.FC.LYZ.NS [1, 6]: 0.001 log2 fold change | Dose.FC.LYZ.NS [1, 7]: −0.028 log2 fold change | Dose.FC.LYZ.S [2, 4]: 0.147 log2 fold change | Dose.FC.LYZ.S [2, 5]: 0.094 log2 fold change | Dose.FC.LYZ.S [2, 6]: 0.012 log2 fold change | Dose.FC.LYZ.S [2, 7]: 0.019 log2 fold change | Z.CTG ([3]; dose 0.08 uM): 0.348 | Z.CTG ([3]; dose 0.40 uM): 0.252 | Z.CTG ([3]; dose 2.00 uM): 0.276 | Z.CTG ([3]; dose 10.00 uM): 0.100 | Dose.FC.CTG [3, 4]: 0.146 log2 fold change | Dose.FC.CTG [3, 5]: 0.106 log2 fold change | Dose.FC.CTG [3, 6]: 0.116 log2 fold change | Dose.FC.CTG [3, 7]: 0.042 log2 fold change

C[C@@H](O[C@H]1OCCN(Cc2n[nH]c(=O)[nH]2)[C@H]1c1ccc(F)cc1)c1cc(C(F)(F)F)cc(C(F)(F)F)c1 [Aprepitant]
Dose.FC.LYZ.NS ([1]; dose 0.08 uM): 0.097 log2 fold change | Z.LYZ.NS (standard z score) ([1]; dose 0.08 uM): 0.840 | Dose.FC.LYZ.NS ([1]; dose 0.40 uM): 0.061 log2 fold change | Z.LYZ.NS (standard z score) ([1]; dose 0.40 uM): 0.532 | Dose.FC.LYZ.NS ([1]; dose 2.00 uM): 0.005 log2 fold change | Z.LYZ.NS (standard z score) ([1]; dose 2.00 uM): 0.043 | Dose.FC.LYZ.NS ([1]; dose 10.00 uM): −0.090 log2 fold change | Z.LYZ.NS (standard z score) ([1]; dose 10.00 uM): −0.780 | Dose.FC.LYZ.S ([2]; dose 0.08 uM): 0.115 log2 fold change | Dose.FC.LYZ.S ([2]; dose 0.40 uM): 0.107 log2 fold change | Dose.FC.LYZ.S ([2]; dose 2.00 uM): −0.007 log2 fold change | Dose.FC.LYZ.S ([2]; dose 10.00 uM): −0.119 log2 fold change | Dose.FC.CTG ([3]; dose 0.08 uM): 0.313 log2 fold change | Dose.FC.CTG ([3]; dose 0.40 uM): 0.403 log2 fold change | Dose.FC.CTG ([3]; dose 2.00 uM): 0.145 log2 fold change | Dose.FC.CTG ([3]; dose 10.00 uM): 0.051 log2 fold change

Cc1c(C(=O)NN2CCCCC2)nn(-c2ccc(Cl)cc2Cl)c1-c1ccc(Cl)cc1 [Rimonabant]
Dose.FC.LYZ.NS [1, 8]: 0.108 log2 fold change | Z.LYZ.NS ([1]; dose 0.08 uM): 0.936 | Dose.FC.LYZ.NS [1, 9]: −0.063 log2 fold change | Z.LYZ.NS ([1]; dose 0.40 uM): −0.545 | Dose.FC.LYZ.NS [1, 10]: −0.054 log2 fold change | Z.LYZ.NS ([1]; dose 2.00 uM): −0.467 | Dose.FC.LYZ.NS [1, 11]: −0.044 log2 fold change | Z.LYZ.NS ([1]; dose 10.00 uM): −0.385 | Dose.FC.LYZ.S [2, 8]: 0.089 log2 fold change | Dose.FC.LYZ.S [2, 9]: −0.003 log2 fold change | Dose.FC.LYZ.S [2, 10]: −0.053 log2 fold change | Dose.FC.LYZ.S [2, 11]: −0.098 log2 fold change | Dose.FC.CTG [3, 8]: 0.256 log2 fold change | Dose.FC.CTG [3, 9]: 0.206 log2 fold change | Dose.FC.CTG [3, 10]: 0.235 log2 fold change | Dose.FC.CTG [3, 11]: 0.063 log2 fold change

C1=N/C2=N/c3ccc(OCCN4CCCC4)c(c3)COC/C=C/COCc3cccc(c3)C(=C1)N2 [Pacritinib (SB1518)]
Z.LYZ.NS ([1]; dose 0.08 uM): 0.795 | Z.LYZ.NS ([1]; dose 0.40 uM): −0.299 | Z.LYZ.NS ([1]; dose 2.00 uM): −1.908 | Z.LYZ.NS ([1]; dose 10.00 uM): −2.391 | Dose.FC.LYZ.NS [1, 4]: 0.091 log2 fold change | Dose.FC.LYZ.NS [1, 5]: −0.034 log2 fold change | Dose.FC.LYZ.NS [1, 6]: −0.219 log2 fold change | Dose.FC.LYZ.NS [1, 7]: −0.275 log2 fold change | Dose.FC.LYZ.S [2, 4]: 0.066 log2 fold change | Dose.FC.LYZ.S [2, 5]: −0.032 log2 fold change | Dose.FC.LYZ.S [2, 6]: −0.304 log2 fold change | Dose.FC.LYZ.S [2, 7]: −0.419 log2 fold change | Z.CTG ([3]; dose 0.08 uM): −0.014 | Z.CTG ([3]; dose 0.40 uM): 0.236 | Z.CTG ([3]; dose 2.00 uM): −0.560 | Z.CTG ([3]; dose 10.00 uM): −3.047 | Dose.FC.CTG [3, 4]: −0.006 log2 fold change | Dose.FC.CTG [3, 5]: 0.099 log2 fold change | Dose.FC.CTG [3, 6]: −0.235 log2 fold change | Dose.FC.CTG [3, 7]: −1.276 log2 fold change

Cc1sc2c(c1C)C(c1ccc(Cl)cc1)=N[C@@H](CC(=O)Nc1ccc(O)cc1)c1nnc(C)n1-2 [OTX015]
Z.LYZ.NS ([1]; dose 0.08 uM): −1.726 | Z.LYZ.NS ([1]; dose 0.40 uM): −2.317 | Z.LYZ.NS ([1]; dose 2.00 uM): −2.082 | Z.LYZ.NS ([1]; dose 10.00 uM): −2.225 | Dose.FC.LYZ.NS [1, 4]: −0.198 log2 fold change | Dose.FC.LYZ.NS [1, 5]: −0.266 log2 fold change | Dose.FC.LYZ.NS [1, 6]: −0.239 log2 fold change | Dose.FC.LYZ.NS [1, 7]: −0.256 log2 fold change | Dose.FC.LYZ.S [2, 4]: −0.279 log2 fold change | Dose.FC.LYZ.S [2, 5]: −0.350 log2 fold change | Dose.FC.LYZ.S [2, 6]: −0.350 log2 fold change | Dose.FC.LYZ.S [2, 7]: −0.362 log2 fold change | Dose.FC.CTG [3, 4]: −0.038 log2 fold change | Dose.FC.CTG [3, 5]: −0.398 log2 fold change | Dose.FC.CTG [3, 6]: −0.686 log2 fold change | Dose.FC.CTG [3, 7]: −0.908 log2 fold change
